Reference: US9096524B2, “Anthelmintic agents and their use” (Intervet International B.V., priority 2009, dated 2015)
Read-outs that look alike come from different tables or passages of the source.

Tested on: A. galli (intestinal roundworm of chicken) larval stage 3; O. dentatum (nodular worm of swine) larval stages 3 and 4
Assay: Activity against Ascaridia galli and Oesophagostomum dentatum larvae in vitro (minimum effective concentration)
Assay type: cell-based
[1] = in vitro, two or more of A. galli L3, O. dentatum L3, L4, threshold 1 μM, read-out: MEC (minimum effective concentration) against two or more of the tested nematodes
[2] = in vitro, one or more of A. galli L3, O. dentatum L3, L4, threshold 1 μM, read-out: MEC (minimum effective concentration) against one or more of the tested nematodes
[3] = in vitro, one or more of A. galli L3, O. dentatum L3, L4, threshold 7 μM, read-out: MEC (minimum effective concentration) against one or more of the tested nematodes
[4] = read-out: MEC (minimum effective concentration) against two or more of the tested nematodes, in vitro, two or more of A. galli L3, O. dentatum L3, L4, threshold 1 μM

Compound	minimal effective concentration [1] [µM]	minimal effective concentration [2] [µM]	minimal effective concentration [3] [µM]	also measured
COc1ccc(N2CCN(CCC(=O)N3CCC(Oc4ccc([N+](=O)[O-])c(C(F)(F)F)c4)CC3)CC2)cc1OC [Example 424]	< 1			
O=C(CCN1CCN(c2ccc(Cl)cc2)CC1)N1CCC(Oc2ccc([N+](=O)[O-])c(C(F)(F)F)c2)CC1 [Example 433]		< 1		
COc1ccc(C2CCN(CCC(=O)N3CCC(Oc4ccc([N+](=O)[O-])c(C(F)(F)F)c4)CC3)CC2)cc1 [Example 435]	< 1			
O=C(CCN1CCC(c2ccc(F)c(F)c2)CC1)N1CCC(Oc2ccc([N+](=O)[O-])c(C(F)(F)F)c2)CC1 [Example 436]	< 1			
O=C(CCN1CCC(c2ccc(C(F)(F)F)cc2)CC1)N1CCC(Oc2ccc([N+](=O)[O-])c(C(F)(F)F)c2)CC1 [Example 438]	< 1			
O=C(CCN1CCC(c2ccc(-c3ccccc3)cc2)CC1)N1CCC(Oc2ccc([N+](=O)[O-])c(C(F)(F)F)c2)CC1 [Example 442]			< 7	
Cn1nnc(-c2ccc(NC3CCN(C(=O)CCN4CCN(c5ccc(Cl)cc5)CC4)CC3)cc2)n1 [Example 445]	< 1	< 1	< 7	
CC(C)COc1cc(NC2CCN(C(=O)CCN3CCC(c4ccc(C(C)(C)C)cc4)CC3)CC2)ccc1[N+](=O)[O-] [Example 457]			< 7	
CC(C)COc1cc(NC2CCN(C(=O)CCN3CCN(c4ccc(C(F)(F)F)cc4)CC3)CC2)ccc1[N+](=O)[O-] [Example 459]		< 1	< 7	
CC(C)COc1cc(NC2CCN(C(=O)CCN3CCN(c4ccc(F)cc4F)CC3)CC2)ccc1[N+](=O)[O-] [Example 469]			< 7	
COc1cc(OC2CCN(C(=O)CCN3CCN(c4ccc(Cl)cc4F)CC3)CC2)ccc1[N+](=O)[O-] [Example 476]			< 7	
COc1cc(OC2CCN(C(=O)CCN3CCN(c4ccc(F)cc4F)CC3)CC2)ccc1[N+](=O)[O-] [Example 477]			< 7	
COc1cc(OC2CCN(C(=O)CCN3CCN(c4ccc(C(F)(F)F)cc4)CC3)CC2)ccc1[N+](=O)[O-] [Example 479]			< 7	
COc1ccc(C2CCN(CCC(=O)N3CCC(Oc4ccc([N+](=O)[O-])c(OC)c4)CC3)CC2)cc1 [Example 484]		< 1		
CCCc1ccc(C2CCN(CCC(=O)N3CCC(Oc4ccc([N+](=O)[O-])c(OC)c4)CC3)CC2)cc1 [Example 489]		< 1		
CCOc1cc(OC2CCN(C(=O)CCN3CCN(c4ccc(OC)c(OC)c4)CC3)CC2)ccc1[N+](=O)[O-] [Example 495]	< 1	< 1	< 7	
CCOc1cc(OC2CCN(C(=O)CCN3CCN(c4ccc(OCc5ccc(C(F)(F)F)cc5)cc4)CC3)CC2)ccc1[N+](=O)[O-] [Example 497]			< 7	
CCOc1cc(OC2CCN(C(=O)CCN3CCN(c4ccc(Cl)cc4F)CC3)CC2)ccc1[N+](=O)[O-] [Example 498]			< 7	
CCOc1cc(OC2CCN(C(=O)CCN3CCN(c4ccc(C(C)(C)C)cc4)CC3)CC2)ccc1[N+](=O)[O-] [Example 502]		< 1	< 7	

Compound	minimal effective concentration [1] [µM]	minimal effective concentration [2] [µM]	minimal effective concentration [3] [µM]	also measured
CCOc1cc(OC2CCN(C(=O)CCN3CCC(c4ccc(C(C)(C)C)cc4)CC3)CC2)ccc1[N+](=O)[O-] [Example 509]		< 1		
CC(C)COc1cc(OC2CCN(C(=O)CCN3CCN(c4ccc(Cl)cc4)CC3)CC2)ccc1[N+](=O)[O-] [Example 512]			< 7	
COc1ccc(N2CCN(CCC(=O)N3CCC(Oc4ccc([N+](=O)[O-])c(OCC(C)C)c4)CC3)CC2)cc1OC [Example 515]			< 7	
COc1ccc(N2CCN(CCC(=O)N3CCC(Oc4ccc([N+](=O)[O-])c(OCC(C)C)c4)CC3)CC2)cc1 [Example 516]		< 1	< 7	
CC(C)COc1cc(OC2CCN(C(=O)CCN3CCN(c4ccc(Cl)cc4F)CC3)CC2)ccc1[N+](=O)[O-] [Example 519]			< 7	
CC(C)COc1cc(OC2CCN(C(=O)CCN3CCN(c4ccc(F)cc4F)CC3)CC2)ccc1[N+](=O)[O-] [Example 520]			< 7	
CC(C)(C)c1ccc(N2CCN(CCC(=O)N3CCC(Nc4ccc([N+](=O)[O-])nc4)CC3)CC2)cc1 [Example 550]		< 1		
CC(C)(C)c1ccc(N2CCN(CCC(=O)N3CCC(Nc4ccc([N+](=O)[O-])cn4)CC3)CC2)cc1 [Example 551]	< 1	< 1		
O=C(CCCN1CCN(c2ccc(Cl)cc2)CC1)N1CCC(Nc2ccc([N+](=O)[O-])cn2)CC1 [Example 559]	< 1			
Cc1cc(NC2CCN(C(=O)CCN3CCN(C(=O)c4cccc(C(F)(F)F)c4)CC3)CC2)ccc1[N+](=O)[O-] [Example 561]	< 1			
CCOc1cc(OC2CCN(C(=O)CCN3CCN(c4ccc(-c5ccccc5)cc4)CC3)CC2)ccc1[N+](=O)[O-] [Example 578]	< 1			
CC(C)(CN1CCN(c2ccc(C(F)(F)F)cc2)CC1)C(=O)N1CCC(Nc2ccc([N+](=O)[O-])c(C(F)(F)F)c2)CC1 [Example 585]	< 1			
CC(N1CCN(c2ccc(Cl)cc2)CC1)C(C)(C)C(=O)N1CCC(Nc2ccc([N+](=O)[O-])c(C(F)(F)F)c2)CC1 (centres unmarked) [Example 586]	< 1			
CC(C(=O)N1CCC(Nc2ccc([N+](=O)[O-])c(C(F)(F)F)c2)CC1)C(C)N1CCN(c2ccc(C(C)(C)C)cc2)CC1 (centres unmarked) [Example 588]				minimal effective concentration [4]: < 1 µM
CC(C)(C)c1ccc(N2CCN(CCCC(=O)N3CCC(Nc4ccnc(C(F)(F)F)c4)CC3)CC2)cc1 [Example 591]	< 1			
O=C(CCN1CCN(c2cccc(Cl)c2)CC1)NC1CCN(c2ccc([N+](=O)[O-])c(C(F)(F)F)c2)CC1 [Example 594]		< 1		
O=C(CCN1CCN(c2ccc(C(F)(F)F)cc2)CC1)NC1CCN(c2ccc([N+](=O)[O-])c(C(F)(F)F)c2)CC1 [Example 596]		< 1		
N#Cc1ccc(N2CCC(NC(=O)CCN3CCN(c4cccc(Cl)c4)CC3)CC2)cc1C(F)(F)F [Example 609]		< 1		
N#Cc1ccc(N2CCC(NC(=O)CCN3CCN(c4ccc(C(F)(F)F)cc4)CC3)CC2)cc1C(F)(F)F [Example 611]				minimal effective concentration (read-out: MEC (minimum effective concentration) against one or more of the tested nematodes, in vitro, one or more of A. galli L3, O. dentatum L3, L4, threshold 1 μM): < 1 µM

Compound	minimal effective concentration [1] [µM]	minimal effective concentration [2] [µM]	minimal effective concentration [3] [µM]	also measured
N#Cc1ccc(N2CCC(NC(=O)CCCN3CCN(c4cccc(Cl)c4)CC3)CC2)cc1C(F)(F)F [Example 617]	< 1			
N#Cc1ccc(N2CCC(NC(=O)CCCN3CCN(c4ccc(C(F)(F)F)cc4)CC3)CC2)cc1C(F)(F)F [Example 619]				minimal effective concentration [4]: < 1 µM
O=C(CCN1CCN(c2cccc(Cl)c2)CC1)NC1CCN(c2ccc(C(F)(F)F)cn2)CC1 [Example 640]		< 1		
O=C(CCCN1CCN(c2cccc(Cl)c2)CC1)NC1CCN(c2ccc(C(F)(F)F)cn2)CC1 [Example 648]		< 1		
CC(CN1CCN(c2ccc(C(F)(F)F)cc2)CC1)C(=O)N1CCC(Nc2ccc(SC(F)(F)F)cc2)CC1 (centres unmarked) [Example 661]				minimal effective concentration [4]: < 1 µM
N#Cc1ccc(N2CCC(NC(=S)CCCN3CCN(c4ccc(C(F)(F)F)cc4)CC3)CC2)cc1C(F)(F)F [Example 662]	< 1			
O=[N+]([O-])c1ccc(NC2CCN(C(=S)CCN3CCN(C(=S)c4ccc(C(F)(F)F)cc4)CC3)CC2)cc1C(F)(F)F [Example 667]	< 1			
CC(CN1CCN(c2ccc(Cl)cc2)CC1)C(=S)N1CCC(Nc2ccc(C#N)c(C(F)(F)F)c2)CC1 (centres unmarked) [Example 668]	< 1			
COc1cc(NC2CCN(C(=S)CCN3CCN(c4ccc(OCc5ccccc5)cc4)CC3)CC2)ccc1[N+](=O)[O-] [Example 675]	< 1			
CN(CC1CCN(c2ccc(Cl)cc2)CC1)C(=S)N1CCC(Nc2ccc([N+](=O)[O-])c(C(F)(F)F)c2)CC1 [Example 676]	< 1			
O=[N+]([O-])c1ccc(NC2CCN(C(=S)CCN3CCN(c4ccc(OCc5ccccc5)cc4)CC3)CC2)cc1C(F)(F)F [Example 678]	< 1			
CCOc1ccc(N2CCC(OCC(=S)N3CCC(Nc4ccc([N+](=O)[O-])c(C(F)(F)F)c4)CC3)CC2)cc1 [Example 694]		< 1		
O=[N+]([O-])c1ccc(OC2CCN(C(=S)CCN3CCC(OCc4ccc(C(F)(F)F)cc4)CC3)CC2)cc1C(F)(F)F [Example 695]	< 1	< 1		
O=[N+]([O-])c1ccc(OC2CCN(C(=S)CCN3CCC(c4ccc(C(F)(F)F)cc4)CC3)CC2)cc1C(F)(F)F [Example 697]	< 1	< 1		
CN(C)S(=O)(=O)c1ccc(NC2CCN(C(=S)CCCN3CCN(c4ccc(C(F)(F)F)cc4)CC3)CC2)cc1C(F)(F)F [Example 699]	< 1			
FC(F)(F)Oc1ccc(NC2CCN(C(=S)CCCN3CCN(c4ccc(C(F)(F)F)cc4)CC3)CC2)cc1 [Example 701]	< 1			
O=C(CCCN1CC2CN(c3ccc(C(F)(F)F)cc3)CC2C1)N1CCC(Nc2ccc([N+](=O)[O-])c(C(F)(F)F)c2)CC1 (centres unmarked) [Example 715]	< 1	< 1		
O=C(CCCN1CC2CN(c3ccc(Cl)cc3)CC2C1)N1CCC(Nc2ccc([N+](=O)[O-])c(C(F)(F)F)c2)CC1 (centres unmarked) [Example 716]	< 1	< 1		
